Tests used:
Format in all cases: cell-based
[1] = biological target: T1, vanilloid receptor 1 (VR1/TRPV1) (Rattus norvegicus, UniProt O35433); test: Functional FLIPR Ca2+ influx assay on vanilloid receptor 1, capsaicin stimulus (Pharmacological Method I)
T1 construct: The vertebral column is removed from decapitated rats; from tissue; host or cells: primary cells from rat dorsal root ganglia (DRG)
Excerpt: The agonistic or antagonistic action of the substances to be investigated on the vanilloid receptor 1 (VR1/TRPV1) of the species rat can be determined using the following assay. According to this assay, the Ca^2+ influx through the receptor channel is quantified with the aid of a Ca^2+-sensitive dye (Type Fluo-4, Molecular Probes Europe BV, Leiden Netherlands) in a fluorescent imaging plate reader (FLIPR, Molecular Devices, Sunnyvale, USA).
The vertebral column is removed from decapitated rats and this is laid directly in a cold, i.e. ice bath-surrounded, HBSS buffer (Hank's buffered saline solution, Gibco Invitrogen GmbH, Karlsruhe, Germany) and 1% by volume of an AA solution (antibiotics/antimycotics solution, PAA, Pasching, Austria) is added. The vertebral column is cut in two longitudinally and the vertebral canal is removed together with fascias. Subsequently, the dorsal root ganglia (DRGs) are removed and in turn stored in cold HBSS buffer to which 1% by volume of an AA solution has been added. The DRGs completely freed from blood residues and spinal nerves are in each case transferred to 500 μL of cold collagenase Type 2 (PAA, Pasching, Austria) and incubated at 37° C. for 35 minutes. […] On completion of incubation, the enzyme solution is carefully pipetted off and 500 μL of complete medium are added to the DRGs in each case. The DRGs are in each case repeatedly suspended, drawn through No. 1, No. 12 and No. 16 needles by means of a syringe and transferred to 50 mL Falcon tubes and these are filled to 15 mL with complete medium. The contents of each Falcon tube are in each case filtered through a 70 μm Falcon filter insert and centrifuged at 1200 rpm and room temperature for 10 minutes. The resulting pellet is in each case taken up in 250 μL of complete medium and the cell count is determined.
The number of cells in the suspension is adjusted to 3×10^5 per mL and in each case 150 μL of this suspension are added to a well of the cell culture plates coated as described above.
The cells are then loaded with 2 μM Fluo-4 and 0.01% by volume of Pluronic F127 (Molecular Probes Europe BV, Leiden Netherlands) in HBSS buffer (Hank's buffered saline solution, Gibco Invitrogen GmbH, Karlsruhe, Germany) at 37° C. for 30 min, washed 3 times with HBSS buffer and, after a further incubation of 15 minutes at room temperature, employed in the FLIPR assay for Ca^2+ measurement. […] Quantification is carried out by measuring the highest fluorescence intensity (FC, fluorescence counts) over time.
Initially, the compounds to be tested (10 μM) are pipetted onto the cells and the Ca^2+ influx is compared with the control (capsaicin 10 μM). Information is gained therefrom in % activation relative to the Ca^2+ signal after addition of 10 μM of capsaicin (CP). After incubation for 5 minutes, 100 nM of capsaicin are applied and the influx of Ca^2+ is likewise determined.
Desensitizing agonists and antagonists lead to suppression of the Ca^2+ influx. The percentage inhibition is calculated in comparison with the maximum inhibition achieved with 10 μM of capsaicin.
Triplicate determinations (n=3) are carried out and these are repeated in at least 3 independent experiments (N=4).
Based on the percentage displacement effected by different concentrations of the compounds of the general formula I to be tested, IC50 inhibition concentrations are calculated which cause 50 percent displacement of capsaicin.

[2] = biological target: vanilloid receptor 1 (VR1/TRPV1-Receptor) (Homo sapiens, UniProt Q8NER1); test: VR1 functional assay following pH-stimulus; settings: read-out: inhibition (in percent), Human following pH-stimulus
vanilloid receptor 1 (VR1/TRPV1-Receptor), sequence (Q8NER1 whole entry): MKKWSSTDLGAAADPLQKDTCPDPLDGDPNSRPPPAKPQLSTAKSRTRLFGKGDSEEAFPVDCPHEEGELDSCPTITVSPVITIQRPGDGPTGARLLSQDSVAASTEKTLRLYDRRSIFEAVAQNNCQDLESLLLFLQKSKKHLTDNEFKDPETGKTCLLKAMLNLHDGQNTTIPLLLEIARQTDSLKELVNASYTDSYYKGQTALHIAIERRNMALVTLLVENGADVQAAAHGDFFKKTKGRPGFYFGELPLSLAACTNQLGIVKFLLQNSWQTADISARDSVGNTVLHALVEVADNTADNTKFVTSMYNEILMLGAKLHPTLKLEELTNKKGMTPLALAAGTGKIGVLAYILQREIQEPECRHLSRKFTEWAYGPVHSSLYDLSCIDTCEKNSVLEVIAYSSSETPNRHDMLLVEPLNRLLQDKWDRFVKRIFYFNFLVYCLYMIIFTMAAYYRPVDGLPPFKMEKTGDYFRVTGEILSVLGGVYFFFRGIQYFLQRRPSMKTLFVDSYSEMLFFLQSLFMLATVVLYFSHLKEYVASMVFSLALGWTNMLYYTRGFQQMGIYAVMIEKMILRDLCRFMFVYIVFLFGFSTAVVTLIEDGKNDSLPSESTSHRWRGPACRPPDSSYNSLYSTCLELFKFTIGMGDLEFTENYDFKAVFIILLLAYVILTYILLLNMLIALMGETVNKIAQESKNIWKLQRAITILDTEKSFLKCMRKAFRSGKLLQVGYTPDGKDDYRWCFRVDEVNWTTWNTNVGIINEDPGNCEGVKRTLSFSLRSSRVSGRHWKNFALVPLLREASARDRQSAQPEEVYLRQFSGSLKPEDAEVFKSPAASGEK

vanilloid receptor (VR1) = biological target: T2, vanilloid receptor (VR1) (Homo sapiens, UniProt Q8NER1); test: Functional FLIPR Ca2+ influx assay in CHO-K1 cells transfected with the VR1 gene, capsaicin stimulus (Pharmacological Method II); settings: read-out: inhibition (in percent), Human Capsaicin
T2 construct: expressed in transfected cells; host or cells: CHO-K1 cells (ECACC), stably transfected
T2 sequence (Q8NER1 whole entry): as above

T1 sequence (O35433 whole entry): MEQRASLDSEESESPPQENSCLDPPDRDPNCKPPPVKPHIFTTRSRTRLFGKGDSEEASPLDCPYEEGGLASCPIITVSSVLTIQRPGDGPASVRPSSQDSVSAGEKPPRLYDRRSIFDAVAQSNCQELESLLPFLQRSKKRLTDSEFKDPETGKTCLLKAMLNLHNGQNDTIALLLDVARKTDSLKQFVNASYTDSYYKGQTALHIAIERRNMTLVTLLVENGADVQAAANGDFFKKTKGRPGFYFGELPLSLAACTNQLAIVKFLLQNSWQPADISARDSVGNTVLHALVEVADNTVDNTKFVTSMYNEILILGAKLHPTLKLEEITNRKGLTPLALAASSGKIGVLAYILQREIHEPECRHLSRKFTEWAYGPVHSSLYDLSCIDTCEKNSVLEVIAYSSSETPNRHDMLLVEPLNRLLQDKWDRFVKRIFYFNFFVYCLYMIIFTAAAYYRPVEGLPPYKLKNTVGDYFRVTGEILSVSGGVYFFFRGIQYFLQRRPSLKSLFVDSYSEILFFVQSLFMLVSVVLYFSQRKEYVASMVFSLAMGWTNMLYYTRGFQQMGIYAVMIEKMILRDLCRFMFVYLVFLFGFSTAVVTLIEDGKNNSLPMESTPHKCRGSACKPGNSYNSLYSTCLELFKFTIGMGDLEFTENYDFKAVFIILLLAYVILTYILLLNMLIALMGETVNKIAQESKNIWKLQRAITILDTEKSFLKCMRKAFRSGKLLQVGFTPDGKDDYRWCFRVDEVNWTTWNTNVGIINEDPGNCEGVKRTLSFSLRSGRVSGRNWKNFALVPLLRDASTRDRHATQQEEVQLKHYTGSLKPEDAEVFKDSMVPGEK

| Compound | inhibition at 1 µM ([1]; @ 1 μM, capsaicin, read-out: inhibition (in percent), Rat Capsaicin) [%] | inhibition at 5 µM ([1]; @ 5 μM, capsaicin, read-out: inhibition (in percent), Rat Capsaicin) [%] | inhibition at 5 µM [2] [%] | inhibition at 10 µM [2] [%] | inhibition at 1 µM (vanilloid receptor (VR1)) [%] | inhibition at 5 µM (vanilloid receptor (VR1)) [%] | Ki ([1]; capsaicin stimulus) [nM] | inhibition at 0.1 µM (vanilloid receptor (VR1); @ 0.1 μM) [%] |
| --- | --- | --- | --- | --- | --- | --- | --- | --- |
| CCC(C)(C(=O)NCc1ccc(C(F)(F)F)nc1SC1CCCCC1)c1ccc(NS(C)(=O)=O)c(F)c1 (stereo not drawn) [Example 8, N-((2-(Cyclohexylthio)-6-(trifluoromethyl)pyridin-3-yl)methyl)-2-(3-fluoro-4-(methylsulfonamido)phenyl)-2-methylbutanamide] | 26 | 99 | 0 | 20 | 0 | 80 | – | – |
| CS(=O)(=O)Nc1ccc(C2(C(=O)NCc3ccc(C(F)(F)F)nc3SC3CCCCC3)CCCC2)cc1F [Example 14, N-((2-(Cyclohexylthio)-6-(trifluoromethyl)pyridin-3-yl)methyl)-1-(3-fluoro-4-(methylsulfonamido)phenyl)cyclopentanecarboxamide] | – | – | 4 | 33 | 20 | 77 | 117 | 0 |

Reference: patent US8735426B2, “Vanilloid receptor ligands, pharmaceutical compositions containing them, process for making them and use thereof for treating pain and other conditions” (Gruenenthal GmbH, priority 2007, dated 2014)
